From US20230330233A1, “COMPOSITIONS AND METHODS FOR DELIVERING PHARMACEUTICAL AGENTS” (priority 2018, published 2023)

Columns and labels:
[1] = Dissolution and supersaturation in simulated gastric (SG) media, UV-vis, Example 1; format: physicochemical; settings: 37° C., Average (Standard Error of the Mean)
Experimental: (§1) To determine the dissolution and supersaturation behavior in SG and PBS media of all CUR, SUL, CUR@MOF-5 and SUL@MOF-5 composites and their physical mixture samples, UV-vis spectroscopy (which is applied to monitor the dissolution process) was used. Concentration of CUR and SUL at 37° C. was determined. FIGS. 4a-d illustrate the solubility of pure CUR, CUR@MOF-5 composite and physical mixture and pure SUL, SUL@MOF-5 composite and physical mixture in SG and PBS media respectively. […] Because the immediate release of CUR molecules (from CUR@mof-5 composite) led to rapid dissolution, which generates high supersaturation in the first 60 min. […] Subsequently, a crystallization process occurs accompanied by a decrease in CUR concentration in both media.

[2] = Dissolution in SG media containing methyl cellulose polymer, Example 2; format: physicochemical; settings: SG media with methyl cellulose polymer, Average (Standard Error of the Mean)
Source text: (§2) This Example described further characterization of a variety of drugs in MOF-5. Methyl cellulose polymer was included in both SG and PBS) dissolution media to inhibit precipitation of drug molecules at high supersaturation and to serve as a proxy for what would be an extensive formulation process of this supersaturating drug delivery system. […] Immediate release of CUR molecules from CUR@MOF-5 via MOF hydrolytic decomposition leads to rapid dissolution which generates high supersaturation in the first 60 min (FIGS. 5a and b). […] This immediate drug release from drug@MOF-5 composite is in contrast with controlled drug release from an amorphous drug@MOF composite with a water stable framework ([…] al., Chem. Commun. 2015, 51, 13878).

[3] = Dissolution and supersaturation in phosphate buffer saline (PBS) media, UV-vis, Example 1; format: physicochemical; settings: for AUC0-4 / Cmax: 37° C., Average (Standard Error of the Mean)
Experimental: as §1

[4] = Dissolution in PBS media containing methyl cellulose polymer, Example 2; format: physicochemical; settings: PBS media with methyl cellulose polymer, Average (Standard Error of the Mean)
Source text: as §2

[5] = test system: mouse model; settings: oral, Ullmann's Encyclopedia; cited from earlier work

SMILES	AUC0-4 [1]	Cmax [1]	AUC0-4 [2]	Cmax [2]	AUC0-4 [3]	Cmax [3]	AUC0-4 [4]	Cmax [4]	dissolution behavior in PBS media [3]	lethal dose, LD50 [5]
COc1cc(/C=C/C(=O)CC(=O)/C=C/c2ccc(O)c(OC)c2)ccc1O [CUR, curcumin]	0.41(6) mg*h/mL	1.99(4) μg/mL	0.39(6) mg*h/mL	2.12(21) μg/mL	0.22(3) mg*h/mL	1.12(7) μg/mL	0.15(2) mg*h/mL	0.95(4) μg/mL		
CC1=C(CC(=O)O)c2cc(F)ccc2/C1=C\c1ccc([S+](C)[O-])cc1 (stereo not drawn) [SUL, sulindac]	1.32(2) mg*h/mL	6.01(6) μg/mL	1.38(2) mg*h/mL	6.84(7) μg/mL	15.82(21) mg*h/mL	68.65(91) μg/mL			fully dissolved	
Nc1nc(N)c2nc(-c3ccccc3)c(N)nc2n1 [TAT, triamterene]							5.89(9) mg*h/mL	26.89(8) μg/mL		
O=C(O)c1ccc(C(=O)O)cc1 [terephthalic acid]										over 1 g/kg
